From patent US7541341B2, “Glucopyranosyloxybenzylbenzene derivatives and medicinal use thereof” (Kissei Pharmaceutical Co., Ltd., priority 2001, dated 2009)
pIC50: −log10 of the molar value.

Legend:
[1] = system: SD rats; assay: Assay for the facilitatory effect on urinary glucose excretion; assay type: in vivo; settings: fasted male SD rats, sucrose 2.5 g/kg load, 24 hours urine
Protocol: Assay for the Facilitatory Effect on Urinary Glucose Excretion
As experimental animals, overnight fasted SD rats (Japan SLC. Inc., male, 7-8 weeks of age, 205-272 g) were used. A Test compound was suspended in 0.5% sodium carboxymethylcellulose solution at the concentration of 2 mg/mL. When a homogenous suspension was not obtained in this condition, the test compound was dissolved in ethanol at the concentration of 100 mg/mL of its active form and then 2 mg/mL suspension was obtained by adding this solution to 49 times volumes of 0.5% sodium carboxymethylcellulose solution. Apart of this suspension was diluted with 0.5% sodium carboxymethylcellulose solution and then 0.6 and 0.2 mg/mL suspensions were prepared. After the body weights of rats were measured, the test suspension was orally administered at the dose of 5 mL/kg (1, 3 and 10 mg/kg). For control, just only 0.5% sodium carboxymethylcellulose solution was orally administered at the dose of 5 mL/kg. Immediately after this oral administration, 500 g/L sucrose solution was orally administered at the dose of 5 mL/kg (2.5 g/kg). The oral administration was performed with gastric tube for rat and 2.5 mL syringe. The head count in one group was 3. Collection of urine was performed in metabolic cage after the sucrose administration was finished. The sampling time for collection of urine was 24 hours after the sucrose administration. After collection of urine was finished, the urine volume was recorded and the urinary glucose concentration was measured. The glucose concentration was measured with a kit for laboratory test: Glucose B-Test WAKO (Wako Pure Chemical Industries, Ltd.). The amount of urinary glucose excretion in 24 hours per 200 g of body weight was calculated from urine volume, urinary glucose concentration and body weight.

[2] = system: SD rat; assay: Acute toxicity test; assay type: in vivo; settings: oral 1000 mg/kg; male SD rat, 5 animals in each group; observation for 24 hours
Protocol: A 100 mg/mL suspension was prepared by adding 0.5% sodium carboxymethylcellulose solution to a test compound. Five week old male SD rat (CLEA JAPAN, INC., 124-128 g, 5 animals in each group) were used as test animals after fasted overnight. The above-mentioned suspension was orally administered at the dose 10 mL/kg (1000 mg/kg) to the test animals, and observation was performed for 24 hours.

[3] = molecular target: T1, human SGLT2 (Homo sapiens, UniProt P31639, I433V); assay: Assay for inhibitory effect on human SGLT2 activity (uptake of methyl-α-D-glucopyranoside in COS-7 cells transiently expressing human SGLT2); assay type: cell-based; settings: methyl-α-D-(U-14C)glucopyranoside uptake, 37° C., 2 hours
T1 construct: expressed in transfected cells; host or cells: COS-7 cells (RIKEN CELL BANK RCB0539), transient, electroporation of KL29
T1 sequence (P31639 1-672 I433V): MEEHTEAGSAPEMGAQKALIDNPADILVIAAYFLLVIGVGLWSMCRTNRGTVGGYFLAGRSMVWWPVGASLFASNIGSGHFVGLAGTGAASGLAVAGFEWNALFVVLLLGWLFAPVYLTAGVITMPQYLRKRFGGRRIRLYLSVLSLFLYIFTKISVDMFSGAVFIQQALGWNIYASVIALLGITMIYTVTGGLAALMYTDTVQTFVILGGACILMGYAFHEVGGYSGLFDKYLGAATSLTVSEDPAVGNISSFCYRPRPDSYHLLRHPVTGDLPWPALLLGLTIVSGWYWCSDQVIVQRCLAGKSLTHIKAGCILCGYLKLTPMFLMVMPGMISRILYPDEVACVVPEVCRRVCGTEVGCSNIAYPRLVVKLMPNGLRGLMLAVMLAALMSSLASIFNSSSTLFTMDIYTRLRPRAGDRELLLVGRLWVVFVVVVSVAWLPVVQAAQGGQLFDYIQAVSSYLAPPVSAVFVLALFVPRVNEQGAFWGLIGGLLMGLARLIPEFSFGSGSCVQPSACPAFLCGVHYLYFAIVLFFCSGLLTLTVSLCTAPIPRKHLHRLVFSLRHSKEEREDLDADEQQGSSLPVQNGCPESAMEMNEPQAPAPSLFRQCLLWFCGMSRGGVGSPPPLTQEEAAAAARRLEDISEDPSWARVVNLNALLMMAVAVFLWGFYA
Protocol: Assay for Inhibitory Effect on Human SGLT2 Activity
1) Construction of the Plasmid Vector Expressing Human SGLT2
Preparation of the cDNA library for PCR amplification was performed by reverse transcription of a total RNA deprived from human kidney (Ori gene) with oligo dT as the primer, using […] Preamplification System (Gibco-BRL: LIFE TECHNOLOGIES). The DNA fragment coding for human SGLT2 was amplified by the PCR reaction, in which the human kidney cDNA library described above was used as the template and the following oligo nucleotides 0702F and 0712R, presented as SEQ ID NO:1 and SEQ ID NO:2 respectively, were used as the primers. The amplified DNA fragment was ligated into pCR-Blunt (Invitrogen), a vector for cloning, according to standard method of the kit. The Escherichia coli HB101 was transformed according to usual method and then selection of the transformants was performed on the LB agar medium containing 50 μg/mL of kanamycin. […] After plasmid DNA was extracted and purified from this transformant, the base sequence of the DNA fragment inserted at the multi-cloning sites of the vector pcDNA3.1 (−) Myc/His-B was analyzed. […]

Row | pIC50 [3] | Compound | Amount of urinary glucose excretion ([1]; oral dose 1 mg/kg) | Amount of urinary glucose excretion ([1]; oral dose 3 mg/kg) | Amount of urinary glucose excretion ([1]; oral dose 10 mg/kg) | Number of death [2]
1 |  | CCOC(=O)OC[C@H]1O[C@@H](Oc2cc(CO)ccc2Cc2ccc(CC)cc2)[C@H](O)[C@@H](O)[C@@H]1O [Example 1, 2-(4-Ethylbenzyl)-5-hydroxymethylphenyl 6-O-ethoxycarbonyl-β-D-glucopyranoside] | 7.0 mg/24 hours/200 g body weight | 82.1 mg/24 hours/200 g body weight | 195.8 mg/24 hours/200 g body weight | 0/5
2 |  | CC(=O)OCCc1ccc(Cc2ccccc2O[C@@H]2O[C@H](COC(C)=O)[C@@H](O)[C@H](O)[C@H]2O)cc1 [Example 40, 2-[4-(2-Acetoxyethyl)benzyl]phenyl 6-O-acetyl-β-D-glucopyranoside] | 0.0 mg/24 hours/200 g body weight | 4.1 mg/24 hours/200 g body weight | 55.9 mg/24 hours/200 g body weight | 
3 | 6.92 | OCC=Cc1ccc(Cc2ccccc2OC2OC(CO)C(O)C(O)C2O)cc1 [Reference Example 49, (E)-2-[4-(3-Hydroxy-1-prop-1-en-1-yl)benzyl]phenyl β-D-glucopyranoside] |  |  |  | 
